Laboratory results published in US6479493B1, “Methods for treatment of type I diabetes” (Cell Pathways, Inc., priority 2001, dated 2002).
Read-outs that look alike come from different tables or passages of the source.

What was measured:
[1] = target: T1, cGMP binding sites of the GST-cGB-PDE5 fusion protein (Homo sapiens, UniProt O76074); assay: cGMP binding assay with GST-cGB-PDE5 fusion protein; conditions: for competition with cGMP binding at high concentration: 100 μM compound versus cGMP 2 μM
T1 construct: made in house; host or cells: E. coli BL21 (DE3)
Source text: RT-PCR method is used to obtain the cGB domain of PDE5 with forward and reverse primers designed from bovine PDE5A cDNA sequence (McAllister-Lucas L. M. et al, J. Biol. Chem. 268, 22863-22873, 1993) and the selection among PDE 1-10 families. 5′-3′, Inc. kits for total RNA followed by oligo (dT) column purification of mRNA are used with HT-29 cells. […] It is then cloned into pGEX-5X-3 glutathione-S-ransferase (GST) fusion vector (Pharmacia Biotech )with tac promoter, and EcoRI and XhoI cut sites. The fusion vector is then transfected into E. Coli BL21 (DE3) bacteria (Invitrogen). The transfected BL21 bacteria is grown to log phase, and then IPTG is added as an inducer. The induction is carried at 20° C. for 24 hrs. The bacteria are harvested and lysed. The soluble cell lysate is incubated with GSH conjugated Sepharose 4B (GSH-Sepharose 4B). The GST-cGB-pDE5 fusion protein can bind to the GSH-Sepharose beads, and the other proteins are washed off from beads with excessive cold PBS.
Then, the mixture is transferred to Brandel MB-24 cell harvester with GF/B as the filter membrane followed by 2 washes with 10 mL of cold 5 mM potassium buffer(pH 6.8). The membranes are then cut out and transferred to scintillation vials followed by the addition of 1 mL of H2O and 6 mL of Ready Safe™ liquid scintillation cocktail to each vial. The vials are counted on a Beckman LS 6500 scintillation counter.
The quenching by filter membrane or other debris are also calibrated.

native bovine PDE5 = native bovine PDE5 (Bos taurus, UniProt Q28156); conditions: read-out: Kd of cGMP binding, native bovine PDE5; cited from earlier work
U937 cells = assay: apoptosis induction of U937 cells, active caspase 3 indirect immunofluorescence; type: cell-based; conditions: 24 hours
Method: U937 cells (from ATCC Rockville, Md.) were grown in RPMI media supplemented with 5% FCS, glutamine, antibiotic/antimycotic and sodium pyruvate. Total RNA was isolated from two U937 cultures, one treated with 5 nM TPA for 48 hours and one grown in normal media as listed above, using the Rouche High Pure RNA Isolation Kit (cat #1 828 665) as per manufacturers protocol. cDNA was then synthesized from the total RNA using GibcoBRL SuperscriptII (Cat #18064-022) reverse transcriptase as per manufacturers protocol. The resulting cDNA was used as a template for RT-PCR reactions using primer sets specific for PDE2 (forward: […], reverse: […]) or PDE5 (forward: […], reverse: […]). mRNA for PDE2 and 5 were both present in the untreated U937 cells. Upon treatment with TPA, the relative amounts of PDE2 mRNA increased 5 fold. Therefore, U937 cells treated with TPA and driven to differentiate into an activated macrophage like state have elevated levels of PDE2 mRNA (see FIG. 1).
The presence of PDE2 and PDE5 protein within U937 cells was confirmed by indirect immunofluorescence (IIF). U937 cells were cultured as above. Two U937 cultures, one grown in the presence of 5 nM TPA for 48 hours and one grown in normal media were processed. All cultures were collected by centrifugation (Shandon Cytospin, 2 minutes @600 rpm) onto poly-L lysine-coated slides and immediately fixed in fresh 3% paraformaldehyde buffered in PBS for 10 minutes. Adherent cultures were grown on coverslips and fixed as above. Cells were permeablized in 0.2% Triton-100 for 2 minutes. Slides were blocked with blocking buffer (5% goat serum, 5% glycerol, 1% gelatin from cold water fish skin and 0.04% NaN3 in PBS) for 1 hour at room temperature.
Slides were then incubated for 1 hour at 37° C. in a humid chamber with antibodies specific for PDE2 (generated in a sheep against the peptide […]) or PDE5 (generated in sheep against the peptide […]). […]
The level of apoptosis in U937 cells was quantified by scoring 500 consecutive cells for the presence of active caspase 3. […]

| SMILES | competition with cGMP in binding to the cGMP binding sites of GST-cGB-PDE5 ([1]; 3H-cGMP 2 μM, 22° C., 1 hour) | further results |
| --- | --- | --- |
| CCCCOC1C2OP(=O)(O)OCC2OC1n1cnc2c(N)ncnc21 (stereo not drawn) [2′-O-butyl-cAMP] | did not compete with cGMP in binding |  |
| CCCCOC1C2OP(=O)(O)OCC2OC1n1cnc2c(=O)[nH]c(N)nc21 (stereo not drawn) [2′-O-butyl-cGMP] | did not compete with cGMP in binding |  |
| Nc1ncnc2c1ncn2[C@@H]1O[C@@H]2COP(=O)(O)O[C@H]2[C@H]1O [Cyclic AMP] |  | competition with cGMP in binding to the cGMP binding sites of GST-cGB-PDE5 [1]: did not compete with cGMP in binding |
| O=c1[nH]cnc2c1ncn2[C@@H]1O[C@@H]2COP(=O)(O)O[C@H]2[C@H]1O [Cyclic IMP] |  | competition with cGMP binding at high concentration [1]: can partially compete with cGMP |
| Nc1nc2c(nc(Br)n2[C@@H]2O[C@@H]3COP(=O)(O)O[C@H]3[C@H]2O)c(=O)[nH]1 [Example 8-bromo-cGMP, 8-bromo-cGMP] |  | competition with cGMP binding at high concentration [1]: can partially compete with cGMP |
| O=C([O-])C1CCN(c2nc(NCc3ccc4c(c3)OCO4)c3cc(Cl)ccc3n2)CC1.[Na+] [Example E4021] | None of the PDE5 inhibitors showed any competition with cGMP in binding |  |
| CSc1ccc(/C=C2/C(C)=C(CC(=O)O)c3cc(F)ccc32)cc1 [Sulindac sulfide] | None of the PDE5 inhibitors showed any competition with cGMP in binding |  |
| Nc1ccn([C@@H]2O[C@@H]3COP(=O)(O)O[C@H]3[C@H]2O)c(=O)n1 [cCMP] | did not compete with cGMP in binding |  |
| Nc1nc2c(ncn2[C@@H]2O[C@@H]3COP(=O)(O)O[C@H]3[C@H]2O)c(=O)[nH]1 [cGMP, cyclic 3′,5′-guanosine monophosphate] |  | Kd (native bovine PDE5): 1300 nM; Kd ([1]; read-out: Kd of cGMP binding to GST-cGB-PDE5 fusion protein, two cGMP binding sites): 1600 ± 200 nM |
| O=c1ccn([C@@H]2O[C@@H]3COP(=O)(O)O[C@H]3[C@H]2O)c(=O)[nH]1 [cUMP, cyclic UMP] | did not compete with cGMP in binding |  |
| CC1=C(CC(=O)O)c2cc(F)ccc2/C1=C\c1ccc(S(C)(=O)=O)cc1 [exisulind] | None of the PDE5 inhibitors showed any competition with cGMP in binding |  |
| COc1ccc(C2CNC(=O)C2)cc1OC1CCCC1 (stereo not drawn) [rolipram] |  | levels of apoptosis (active caspase 3) (U937 cells; 0.5 uM): No increase in the levels of apoptosis compared to normal background was observed |
| CCCc1nn(C)c2c(=O)[nH]c(-c3cc(S(=O)(=O)N4CCN(C)CC4)ccc3OCC)nc12 [sildenafil] |  | levels of apoptosis (active caspase 3) (U937 cells; 0.3 nM): No increase in the levels of apoptosis compared to normal background was observed |
| CCCOc1ccccc1-c1nc2nn[nH]c2c(=O)[nH]1 [zaprinast] | None of the PDE5 inhibitors showed any competition with cGMP in binding |  |
